This is an account of results in patent publication US9340545B2, “Quinazolin-4 (3H)—one derivatives used as P13 kinase inhibitors” (Respivert Limited, priority 2011, dated 2016).

The test system of the assay is cigarette smoke-induced cell accumulation in murine BALF. The assay can be described thus: Cigarette smoke model. It counts as in vivo, A/J mice.

Regarding `C[C@@H]1C[C@H]2[C@@H]3CCC4=CC(=O)C=C[C@]4(C)[C@@]3(F)[C@@H](O)C[C@]2(C)[C@@]1(O)C(=O)CO` [dexamethasone], where the note is “0.3-10 mg/kg, p.o.”, the “Activity in the cigarette smoke model” value is “inactive”.
For `CCC(=O)O[C@]1(C(=O)SCF)[C@H](C)C[C@H]2[C@@H]3C[C@H](F)C4=CC(=O)C=C[C@]4(C)[C@@]3(F)[C@@H](O)C[C@@]21C` [fluticasone propionate], the “Anti-inflammatory effect as monotherapy in the cigarette smoke model” value (monotherapy, at the dose used for co-administration (FP dosed at 50 μg/mL)) was “lacks any significant effect”.
